Ends that are not written are not given here.
Assays:
[1] = test system: pluripotent stem cells; experiment: qPCR gene expression, early eye field differentiation, day 4; assay type: cell-based, human; conditions: for expression of early neural/early eye field marker Lhx2 / expression of early neural/early eye field marker Rax / expression of the pluripotency genes Oct4 and Nanog: day 4, added to IGF1, Noggin, Dkk1 and bFGF, compared with controls; for expression of the pluripotency genes Oct4 and Nanog: 10 mM nicotinamide or 5 mM 3-aminobenzamide
Protocol: (§1) Pluripotent stem cells were passaged directly onto Matrigel (BD Biosciences) in DMEM/F12 with 1×B27, 1×N2, and 1×NEAA (Invitrogen). From days 0 to 2, 50 ng/ml Noggin, 10 ng/ml Dkk1, and 10 ng/ml IGF1 (R&D Systems Inc., Minneapolis, Minn., http://www.rndsystems.com) and in some experiments 10 mM nicotinamide or 5 mM 3-aminobenzamide (Sigma-Aldrich) were added to the base medium. From days 2 to 4, 10 ng/ml Noggin, 10 ng/ml Dkk1, 10 ng/ml IGF1, and 5 ng/ml bFGF and in some experiments 10 mM nicotinamide or 5 mM 3-aminobenzamide were added to the base medium. From days 4 to 6, 10 ng/ml Dkk1 and 10 ng/ml IGF1 and in some experiments 100 ng/ml Activin A (R&D Systems) were added to the base medium. From days 6 to 14, 100 ng/ml Activin A, 10 μM SU5402 (EMD Millipore, Darmstadt, Germany, http://www.emdmillipore.com), and […] VIP (Sigma-Aldrich) were added to the base medium. Control experiments were also performed in base media alone (DMEM/F12, B27, N2, and NEAA).
(§2) Quantitative Real-Time Polymerase Chain Reaction Total RNA of RPE marker genes was isolated using primers based upon the mRNA sequences of such genes. QPCR methods were carried out with the RNeasy Plus Mini Kit (Qiagen, Hilden, Germany, http://www.qiagen.com). cDNA was synthesized from 1 μg of RNA using the iScript cDNA Synthesis Kit (Bio-Rad, Hercules, Calif., http://www.bio-rad.com). Primer pairs were designed to create a 75-200-base pair product (Beacon Design 4.0; Premier Biosoft International, Palo Alto, Calif., http://www.premierbiosoft.com). Quantitative real-time polymerase chain reaction (PCR) was carried out on a Bio-Rad MyIQ Single Color Real-Time PCR Detection System using the SYBR Green method, as described in Woo T H, Patel B K, Cinco M et al. Identification of Leptospira biflexa by real-time homogeneous detection of rapid cycle PCR product. J Microbiol Methods 1999; 35:23-30. Triplicate 20-μl reactions were run in a 96-well plate with half of the cDNA synthesis reaction used per plate. Primer specificity was confirmed by melting temperature analysis, gel electrophoresis, and direct sequencing (Iowa State DNA Facility, Ames, Iowa). The data were normalized to the geometric mean of the “housekeeping” genes: glyceraldehyde phosphate dehydrogenase (GAPDH), hydroxymethylbilane synthase (HMBS), and glucose phosphate isomerase (GPI), as described in Radeke M J, Peterson K E, Johnson L V et al. Disease susceptibility of the human macula: Differential gene transcription in the retinal pigmented epithelium/choroid. Exp Eye Res 2007; 85:366-380.

[2] = test system: early eye field cells; experiment: qPCR gene expression, RPE specification of early eye field cells, day 10; assay type: cell-based, human; conditions: for gene expression of Mitf / expression of Rax: day 10; for gene expression of Mitf: Activin A added days 4-10, SU5402 or VIP days 6-10
Protocol: as §1, §2

[3] = test system: dissociated RPE; experiment: Rescue of RPE after single-cell dissociation on day 14; assay type: cell-based, human; conditions: 10 μM for the first 3 days after passage
Protocol: The cells were mechanically enriched by scraping away cells with non-RPE morphology. Subsequently, the remaining RPE were digested using TrypLE Express (Invitrogen) for ˜5 minutes at 37° C. The cells were passed through a 30-μm single-cell strainer and seeded onto Matrigel-coated tissue culture plastic, Transwell membranes (Corning Enterprises, Corning, N.Y., http://www.corning.com), or CC2-treated chambered slides. Enriched cells were cultured in DMEM-high glucose with 1% fetal bovine serum (FBS), GlutaMAX, and sodium pyruvate (Invitrogen) for 30 days, as described in Ahmado A, Carr A J, Vugler A A et al. Induction of differentiation by pyruvate and DMEM in the human retinal pigment epithelium cell line ARPE-19. Invest Ophthalmol Vis Sci 2011; 52:7148-7159.
Differentiated Cells Can Be Enriched on Day 14 to Homogenous Cultures of Functional RPE. To generate more homogenous populations of RPE, readily visible sheets on day 14 were mechanically isolated, dissociated into single cells, and replated in an RPE medium described in Buchholz D E, Hikita S T, Rowland T J et al. Derivation of functional retinal pigmented epithelium from induced pluripotent stem cells. STEM CELLS 2009; 27:2427-2434, on Matrigel-coated tissue culture plastic, chambered slides, or Transwell inserts. […]

[4] = molecular target: PKC; conditions: cited from earlier work
[5] = molecular target: cAMP-dependent protein kinase; conditions: cited from earlier work
[6] = molecular target: myosin light-chain kinase; conditions: cited from earlier work
[7] = test system: pluripotent stem cells; experiment: Cell morphology during early eye field differentiation; assay type: cell-based, human; conditions: compared with control cells
Protocol: as §1

[8] = test system: early eye field cells; experiment: Pigmentation of differentiating cultures; assay type: cell-based, human; conditions: cultures containing VIP, between days 10 and 14
Protocol: as §1

[9] = Activin A added days 4-10, SU5402 days 6-10

Molecule: NC(=O)c1cccc(N)c1 [3-aminobenzamide]
- expression of early neural/early eye field marker Lhx2 [1]: significantly increased
- expression of early neural/early eye field marker Rax [1]: significantly increased
- expression of the pluripotency genes Oct4 and Nanog [1]: reduced
- ability to recapitulate the effects of nicotinamide ([1]; day 4, overall): partially recapitulate the effects of nicotinamide

Molecule: Cc1c[nH]c(/C=C2\C(=O)Nc3ccccc32)c1CCC(=O)O [SU5402]
- gene expression of Mitf [2]: little effect
- expression of Rax [2, 9]: little effect
- expression of Rax ([2]; SU5402 in combination with Activin A): further decreased

Molecule: C[C@@H](N)[C@H]1CC[C@H](C(=O)Nc2ccncc2)CC1 [Y-27632]
- Ki [5]: 25 µM
- Ki [6]: > 250 µM

Molecule: NC(=O)c1cccnc1 [nicotinamide]
- expression of early neural/early eye field marker Lhx2 [1]: increased
- expression of early neural/early eye field marker Rax [1]: the increase in Rax was not significant
- expression of the pluripotency genes Oct4 and Nanog [1]: significantly decreased
- Pax6(−5a) expression ([1]; day 4, nicotinamide against control conditions): similar
- cell morphology [7]: rapidly adopted a radial/rosette morphology

Molecule: VIP: vasoactive intestinal peptide, a cyclic AMP upregulator (HSDAVFTDNYTRLRKQMAVKKYLNSILN; ends and bridges not checked; UniProt P01282 125-152, looked up)
- expression of RPE marker gene PEDF ([2]; VIP added days 6-10): significantly increased
- expression of RPE marker gene tyrosinase ([2]; VIP added days 6-10): significantly increased
- gene expression of Mitf [2]: significantly increased
- pigmentation [8]: increased

B1: Activin A: Recombinant Activin A, media additive (protein, UniProt P08476 311-426, looked up)
Inhibin beta A chain: GLECDGKVNICCKKQFFVSFKDIGWNDWIIAPSGYHANYCEGECPSHIAGTSGSSLSFHSTVINHYRMRGHSPFANLKSCCVPTKLRPMSMLYYDDGQNIIKKDIQNMIVEECGCS
- gene expression of Mitf [2]: little effect
- expression of Rax [2, 9]: significantly decreased

Reference: patent publication US9458428B2, “Methods and compositions for the rapid production of retinal pigmented epithelial cells from pluripotent cells” (The Regents of the University of California, priority 2012, dated 2016)
